This is an account of results in patent US20100292231A1, “Indazole Compounds for Treating Inflammatory Disorders, Demyelinating Disorders and Cancers” (priority 2007, published 2010).

Structures are written as SMILES.

The target of test [1] is T1, FLT3 (Homo sapiens, UniProt P36888).
T1 construct: purchased Invitrogen (SelectScreen platform)
T1 sequence (P36888 27-993): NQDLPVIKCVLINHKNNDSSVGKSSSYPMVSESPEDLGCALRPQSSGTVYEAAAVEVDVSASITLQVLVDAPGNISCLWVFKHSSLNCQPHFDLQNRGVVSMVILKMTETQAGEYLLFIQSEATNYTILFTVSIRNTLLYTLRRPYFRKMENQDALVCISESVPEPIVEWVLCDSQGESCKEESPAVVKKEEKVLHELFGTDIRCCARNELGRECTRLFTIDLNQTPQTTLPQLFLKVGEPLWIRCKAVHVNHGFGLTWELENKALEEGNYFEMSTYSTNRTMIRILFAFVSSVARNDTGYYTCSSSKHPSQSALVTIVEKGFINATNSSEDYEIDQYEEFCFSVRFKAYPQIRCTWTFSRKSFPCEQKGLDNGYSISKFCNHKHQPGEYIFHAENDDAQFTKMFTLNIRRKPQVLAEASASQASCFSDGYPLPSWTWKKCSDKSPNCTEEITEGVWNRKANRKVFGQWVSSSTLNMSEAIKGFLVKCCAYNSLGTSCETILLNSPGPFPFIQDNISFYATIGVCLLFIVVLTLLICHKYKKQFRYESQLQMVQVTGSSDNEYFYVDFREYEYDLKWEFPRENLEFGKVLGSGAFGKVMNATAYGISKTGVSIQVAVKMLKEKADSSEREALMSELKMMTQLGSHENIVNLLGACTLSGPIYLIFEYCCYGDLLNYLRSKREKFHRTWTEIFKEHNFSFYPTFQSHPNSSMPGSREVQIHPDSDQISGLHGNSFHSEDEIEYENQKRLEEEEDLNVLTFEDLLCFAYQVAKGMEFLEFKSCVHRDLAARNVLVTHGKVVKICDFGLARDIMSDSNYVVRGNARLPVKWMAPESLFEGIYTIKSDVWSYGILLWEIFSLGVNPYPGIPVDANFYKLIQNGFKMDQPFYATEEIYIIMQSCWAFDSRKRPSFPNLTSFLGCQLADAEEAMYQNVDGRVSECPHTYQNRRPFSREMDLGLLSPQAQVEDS
The test is described as follows: SelectScreen FLT3 kinase dose response assay. The format is biochemical. The note with it: ATP 100 micromolar; for EC50: dose response, 4 parameter Hill equation, read-out: FLT3 Inhibition EC50. The protocol: The terms “IC50” and “EC50” are used interchangeably. As used herein, “EC50” refers to nMolar concentration at median percent inhibition determined by dose respose (DR) assay. As used herein, the term “E1000” refers to percent inhibition at 1000 nMolar determined by assay.
Testing of the compounds described in this invention was carried out using the SelectScreen™ platform from Invitrogen, Inc. (Carlsbad. Calif., USA) and the details of its performance are readily viewed via the web by linking to: http://www.invitrogen.com/downloads/SelectScrn_Brochure.pdf.
Briefly, the approach is based on treating each specific kinase with a unique substrate and optical reporter system in the presence of ATP at 100 micromolar. In controls, the substrate is phosphorylated and a baseline optimal response is recorded.
The compounds were then re-tested by adding graded amounts of putative inhibitor which were added in 5 separate increments to generate a dose response curve. The latter is obtained by fitting to a 4 parameter Hill equation, a sigmoid saturation equation.
For the compounds of this invention, the experimental conditions were as follows. The 2× FLT3/Tyr 02 peptide mixture was prepared in 50 mM HEPES pH 7.5, 0.01 BRIJ-35, 10 mM MgCl2, 1 mM EGTA. The final 10 uL kinase reaction consists of 0.6-76.0 ng FLT3 and 2 uM Tyr 02 peptide in 50 mM HEPES pH 7.5, 0.01% BRIJ-35, 10 mM MgCl2, 1 mM EGTA. After 1 hour kinase reaction incubation, 5 uL of a 1:64 dilution of development reagent A was added.

Test [2] relates to Raw264.7 (murine macrophage-like cells). The test is described as follows: sulforhodamine B (SRB) cytotoxicity assay. The conditions noted are these: Mus musculus, RAW264.7, 144 h; 25 μM highest concentration, diluted 1:5; 6 days; read-out: IC50 Measured Against Raw264.7 Cell Line. The format is cell-based. (In SRB staining, fixed cells bind dye roughly in proportion to their protein.)

In general, inhibition refers to the drop in the measured response relative to a control, in per cent. The term EC50 denotes the concentration giving half of the maximal effect. As to `O=c1c2c(F)ccc3ncn(c4ccc5[nH]ncc5c14)c32` [(XVIII)], in test [1] (1000 nMolar compound, read-out: FLT3 Inhibition E1000 (percent inhibition at 1000 nMolar)), the inhibition at 1 µM was found to be 47%. For the same compound, the EC50 in test [1] was found to be 1.33 µM.

`Cc1nc2cc3nc(-c4cccs4)cnc3cc2n1C` [AGL-2043, reference compound]: in test [1] (1000 nMolar compound), the “FLT3 Inhibition E1000 (percent inhibition at 1000 nMolar)” value was determined as 93%. The EC50 in test [1] turned out to be 0.038 µM.

On to `c1ccc(-c2n[nH]c3c2oc2ccccc23)cc1` [GTP-14564, reference compound], for which the “FLT3 Inhibition E1000 (percent inhibition at 1000 nMolar)” value in test [1] (1000 nMolar compound) is reported as 95%. In addition, in test [1], the EC50 was found to be 0.026 µM.

What is called IC50 is the concentration needed to halve the response being measured. As for `CCN(CC)CCNC(=O)c1c(C)[nH]c(/C=C2\C(=O)Nc3ccc(F)cc32)c1C` [Sunitinib, sunitinib, reference compound], the IC50 in test [2] stood at 0.763 µM.
